“And” between values parts separate entries of the source, which are not always exact repeats. Equal values may be shown once.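 Growth conditions: 96-well plates. Treatment: test compound, 48 hours, 5 concentrations. Analysis: linear interpolation between bracketing concentrations; unreached endpoints set to highest concentration. GI50: concentration for 50% inhibition of growth. The concentration for full growth arrest is given as TGI.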
Tests used:
Assay in all cases: DTP human tumour cell line panel, 48 h
[1] = tested on: HCC-2998 colon
[2] = tested on: OVCAR-8 ovarian
[3] = tested on: OVCAR-4 ovarian
[4] = tested on: COLO 205 colon
[5] = tested on: SF-539 CNS
[6] = tested on: HS 578T breast
[7] = tested on: T-47D breast
[8] = tested on: SF-295 CNS
[9] = tested on: NCI-H460 lung
[10] = tested on: LOX IMVI melanoma

Compound | TGI [1] | TGI [2] | TGI [3] | TGI [4] | TGI [5] | TGI [6] | TGI [7] | TGI [8] | TGI [9] | TGI [10] | GI50 [1] | GI50 [2] | GI50 [3] | GI50 [4] | GI50 [6] | GI50 [7] | GI50 [8] | GI50 [9] | GI50 [10] | GI50 [5]
[N-]=[N+]=Nc1cc(=O)n2c3c(cccc13)CCC2 | > 100 µM | > 100 µM | > 100 µM | > 100 µM | > 100 µM | > 100 µM | > 100 µM | > 100 µM | > 100 µM | > 100 µM |  |  |  |  |  |  |  |  |  | 
CC(C)C(=O)Nc1nc2c(ncn2C2OC(CO)C(O)C2O)c(=O)[nH]1 (centres undefined) | > 100 µM | > 100 µM | > 100 µM | > 100 µM | > 100 µM |  |  | > 100 µM | > 100 µM | > 100 µM |  |  |  |  |  |  |  |  |  | 
CN[C@@H](C)[C@@H](NC)c1ccccc1 | > 100 µM | > 100 µM |  | > 100 µM | > 100 µM |  |  | > 100 µM | > 100 µM | > 100 µM |  |  |  |  |  |  |  |  |  | 
CCCO/S(=N\S(=O)(=O)c1ccccc1)c1ccccc1[N+](=O)[O-] (centres undefined) | > 100 µM | > 100 µM | > 100 µM | > 100 µM | > 100 µM |  |  | > 100 µM | > 100 µM | > 100 µM |  |  |  |  |  |  |  |  |  | 
O=C(O)c1ccc(OCc2ccccc2)c(Cl)c1 |  | > 100 µM | > 100 µM | > 100 µM | > 100 µM | > 100 µM | > 100 µM | > 100 µM | > 100 µM | > 100 µM |  |  |  |  |  |  |  |  |  | 
O=[N+]([O-])c1ccc(N2N=C(c3ccc(NCc4nc5ccccc5[nH]4)cc3)CC2c2ccco2)cc1 (centres undefined) | 94.1 µM | 57.7 µM | 64.8 µM | 77.9 µM | 84.4 µM |  |  | 74.7 µM | > 100 µM | 41.6 µM |  |  |  |  |  |  |  |  |  | 
C=C1C(=O)OC2CC(C)C3(O)CCC(=O)C3(C)CC12 (centres undefined) | 50 µM | 70.3 µM | 40.2 µM | > 100 µM | 32.7 µM | 61.4 µM | > 100 µM | > 100 µM |  | > 100 µM |  |  |  |  |  |  |  |  |  | 
O=S(=O)(c1ccccc1)C1CN2OC1(S(=O)(=O)c1ccccc1)CC2c1ccc(Br)cc1 (centres undefined) | > 100 µM | > 100 µM | > 100 µM |  | 89.9 µM |  |  | > 100 µM | > 100 µM | > 100 µM |  |  |  |  |  |  |  |  |  | 
COc1cc(C=O)c(-c2cc(OC)c(OC)cc2C=O)cc1OC | > 100 µM | > 100 µM | > 100 µM | > 100 µM | > 100 µM |  |  | > 100 µM | > 100 µM | 66 µM |  |  |  |  |  |  |  |  |  | 
COc1cc(C(=O)N2CCN(c3ncccn3)CC2)c(N)cc1OCc1ccccc1 | > 100 µM | > 100 µM | > 100 µM | > 100 µM |  | > 100 µM | > 100 µM | > 100 µM | > 100 µM | > 100 µM | > 100 µM | > 100 µM | > 100 µM | > 100 µM | > 100000 nM | > 100 µM | > 100000 nM | > 100 µM | > 100 µM | 
COC1(OC)CC2C(=O)N(Cc3ccccc3)C1C=C2S(=O)(=O)c1ccccc1 (centres undefined) | 33.6 µM | 40.5 µM | 53.5 µM | 22 µM | 32.7 µM |  |  | > 100 µM | 38.6 µM | 28.2 µM |  |  |  |  |  |  |  |  |  | 
CC(C)N(C(=O)C12C3C4C1(I)C1C2C3(I)C41C(=O)N(C(C)C)C(C)C)C(C)C (centres undefined) | > 100 µM | > 100 µM | > 100 µM | > 100 µM | > 59.6 µM |  |  | > 100 µM | > 100 µM | > 60.5 µM |  |  |  |  |  |  |  |  |  | 
CN1C(=O)/C(=C/c2c(Cl)n(C)c3ccccc23)c2ccccc21 |  |  | 3.45 µM | 1.63 µM |  | 9.29 µM and 5.34 µM | 0.825 µM | 7.76 µM and 2.99 µM | > 100 µM |  |  | 5.49 µM | 8.99 µM and 1.82 µM | 4.59 µM and 0.485 µM | 3460 nM and 2420 nM |  | 2740 nM and 1580 nM | 6.17 µM and 2.84 µM | 4.79 µM | 
Cc1cc(NS(=O)(=O)c2ccc(Nc3c4ccccc4nc4c(C(=O)N5CCN(CCO)CC5)ccc(Cl)c34)cc2)no1 | > 100 µM | > 100 µM | > 100 µM | > 100 µM | > 100 µM |  |  | > 100 µM | > 100 µM |  |  |  |  |  |  |  |  |  |  | 
O=Cc1ccc2c(c1-c1c(C=O)ccc3c1OCO3)OCO2 | > 100 µM | > 100 µM | > 100 µM | > 100 µM | > 100 µM |  |  | > 100 µM | > 100 µM |  |  |  |  |  |  |  |  |  |  | 
CCC1CCc2c(c(=O)oc3c2cc(OC)c2cccc(OC)c23)C1 (centres undefined) | > 100 µM | > 100 µM | > 100 µM | > 100 µM | > 100 µM |  |  | > 100 µM | > 100 µM |  |  |  |  |  |  |  |  |  |  | 
O=C1NC(=NCCc2cccc(Cl)c2)S/C1=C\c1ccc2ncccc2c1 | > 25 µM | > 25 µM | > 25 µM | > 25 µM | > 25 µM | > 25 µM | > 25 µM | > 25 µM | > 25 µM |  | > 25 µM | > 25 µM | > 25 µM | > 25 µM | > 25000 nM | > 25 µM | > 25000 nM | > 25 µM |  | > 25000 nM
Cc1c(/C=N/NC(=O)c2ccc(Cl)cc2)c(=O)n(-c2ccccc2)n1C | > 100 µM | > 100 µM | > 100 µM | > 100 µM | > 100 µM |  |  | > 100 µM | > 100 µM | > 100 µM |  |  |  |  |  |  |  |  |  | 
O=P1(c2ccccc2)CCCCC1 | > 100 µM | > 100 µM | > 100 µM | > 100 µM | > 100 µM |  |  | > 100 µM | > 100 µM | > 100 µM |  |  |  |  |  |  |  |  |  | 
Cc1cc(C)c(/C=C2\C(=O)Nc3ccc(NC(=O)CCCCCCC(=O)NO)cc32)[nH]1 | > 100 µM | > 100 µM | > 100 µM | 2.32 µM | > 100 µM | > 100 µM |  | > 45.7 µM | > 100 µM | 12.9 µM | 5.68 µM | 0.638 µM | 8.34 µM | 0.479 µM | 2960 nM |  | 1440 nM | > 50.6 µM | 0.493 µM | 521 nM
COc1ncc(-c2ccc3ncnc(Nc4cccc(Cl)c4)c3c2)cc1NS(=O)(=O)C1CC1 | > 100 µM | > 100 µM |  | > 100 µM | > 100 µM | > 100 µM |  |  |  |  | > 100 µM | 2.18 µM |  | > 100 µM | 365 nM |  |  |  |  | 2870 nM

Reference: PubChem BioAssay (NCI)
